Test results taken from patent publication US20220202948A1, “Agent for Eliminating Pluripotent Stem Cells” (Sumitomo Dainippon Pharma Co., Ltd., priority 2019, published 2022).
Square brackets hold non-standard residues; d marks the D form. Peptide text beside a SMILES is read from it. * marks the point of attachment. Dolaproine = CO[C@@H]([C@@H]1CCCN1)[C@@H](C)C(=O)O; Dil = CC[C@H](C)[C@H](NC)[C@@H](CC(=O)O)OC; X1 = C[C@@H](N*)[C@@H](O)c1ccccc1; NMeV = CN[C@H](C(=O)O)C(C)C

Columns and labels:
[1] = Membrane permeability test, parallel artificial membrane permeability assay (PAMPA); format: in vitro ADME; details: pH 7.4, 37° C.; for Papp at 4 h: read-out: permeability coefficient Pe (pH 7.4)
Protocol: By the parallel artificial membrane permeability assay (PAMPA), the membrane permeability of compounds of Examples was examined as follows: To the donor plate, System solution (pION inc.) and GIT Lipid-0 (pION inc.) were added in an amount of 200 μL and 4 μL for each well, respectively. To the acceptor plate, Acceptor Sink Buffer (pION inc.) was added in an amount of 200 μL. Both plates were superposed and incubated at 37° C. for 4 hours, and then, UVs in the solutions on the side of acceptor and on the side of donor were measured with a UV plate reader (190 to 500 nm). Compounds with poor UV absorption were measured by LC-MS. The permeability coefficient Pe (10^−6 cm/sec) of the drug was calculated by the following formula.

porcine tubulin [2] = biological target: T1, porcine tubulin (Sus scrofa, UniProt P02550+P02554); assay: Activity for inhibiting microtubule polymerization using porcine tubulins (1), tubulin polymerization inhibition assay kit; format: biochemical; details: compound 0.91 μM, absorbance at 340 nm at 37° C., FIG. 1
T1 construct: purchased Cytoskeleton Inc. BK006P
T1 sequence (P02550 whole entry): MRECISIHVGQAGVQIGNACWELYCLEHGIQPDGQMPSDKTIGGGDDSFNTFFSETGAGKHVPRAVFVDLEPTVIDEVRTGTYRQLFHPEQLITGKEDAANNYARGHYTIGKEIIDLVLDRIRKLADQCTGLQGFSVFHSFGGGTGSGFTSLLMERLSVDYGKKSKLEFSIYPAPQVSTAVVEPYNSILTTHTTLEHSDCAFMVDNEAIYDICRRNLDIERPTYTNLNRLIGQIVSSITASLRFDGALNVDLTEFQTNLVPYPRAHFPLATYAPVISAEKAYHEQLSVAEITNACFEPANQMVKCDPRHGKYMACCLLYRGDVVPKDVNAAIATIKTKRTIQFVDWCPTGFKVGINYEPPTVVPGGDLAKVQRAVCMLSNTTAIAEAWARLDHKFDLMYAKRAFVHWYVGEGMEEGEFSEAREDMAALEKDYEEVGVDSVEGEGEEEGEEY
T1 sequence (P02554 whole entry): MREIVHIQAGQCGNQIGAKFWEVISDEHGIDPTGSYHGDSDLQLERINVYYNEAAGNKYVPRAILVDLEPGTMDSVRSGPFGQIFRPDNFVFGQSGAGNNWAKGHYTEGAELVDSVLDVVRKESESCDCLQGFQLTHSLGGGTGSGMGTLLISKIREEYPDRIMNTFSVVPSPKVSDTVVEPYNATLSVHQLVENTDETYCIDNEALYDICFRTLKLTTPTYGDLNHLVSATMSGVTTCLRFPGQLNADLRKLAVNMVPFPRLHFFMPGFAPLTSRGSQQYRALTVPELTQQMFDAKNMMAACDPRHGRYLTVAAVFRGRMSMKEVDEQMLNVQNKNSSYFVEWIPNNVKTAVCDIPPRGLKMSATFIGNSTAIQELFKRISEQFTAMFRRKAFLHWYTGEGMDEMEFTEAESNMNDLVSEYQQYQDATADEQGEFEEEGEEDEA
Protocol: (§1) Using a tubulin polymerization inhibition assay kit (catalog number: BK006P) purchased from Cytoskeleton Inc., the polymerization inhibitory activity of compounds of Examples with a concentration of 0.91 μM was evaluated in accordance with the protocol appended to the kit. In summary of the protocol, to a 96 well microplate, 80 mM PIPES pH 6.9, 2 mM MgCl, 0.5 mM EGTA and 5% DMSO buffered solution of the compound to be evaluated was added in an amount of 10 μL for each well, and to these wells, 3 mg/mL porcine tubulin 80 mM PIPES pH 6.9, 2 mM MgCl, 0.5 mM EGTA, 1 mM GTP and 10.2% glycerol solution was added in an amount of 100 μL for each well. In order to examine a state in which tubulins polymerize over time, the absorbance at 340 nm was measured at 37° C., using a microplate reader. As the polymerization of tubulins progresses, the absorbance at 340 nm rises.

porcine tubulin [3] = biological target: T1, porcine tubulin; assay: Activity for inhibiting microtubule polymerization using porcine tubulins (2), microtubule polymerization rate; format: biochemical; details: compound 9.1 μM, 60 minutes after assay initiation, relative to wells without compound; lower = stronger inhibition
Protocol: as §1, with “Examples at” for “Examples with”, “of 9.1” for “of 0.91”, “kit. To” for “kit. In summary of the protocol, to”
The tubulin polymerization inhibitory activity was evaluated based on the proportion of polymerized tubulins 60 minutes after the assay initiation. Specifically, the microtubule polymerization rate (%) was calculated by dividing the absorbance of tubulins that had polymerized at wells to which the compound had been added by the absorbance of tubulins that had polymerized at wells to which the compound had not been added, and multiplying the obtained value by 100.

Row | Structure (SMILES) | Papp at 4 h [1] [×10⁻⁶ cm/s] | activity for inhibiting microtubule polymerization (porcine tubulin [2]) | Microtubule polymerization rate (%) (porcine tubulin [3]) | permeability coefficient Pe (pH 7.4) ([1]; 4 hours)
1 | CN[C@H](C(=O)N[C@H](C(=O)N(C)[C@H](/C=C(\C)C(=O)N[C@H](CCC(=O)O)C(=O)O)C(C)C)C(C)(C)C)C(C)(C)c1cn(C)c2ccccc12 [Example 1, N,β,β-tetramethyl-L-tryptophyl-N-[(3S,4E)-6-{[(1R)-1,3-dicarboxypropyl]amino}-2,5-dimethyl-6-oxohex-4-en-3-yl]-N,3-dimethyl-L-valinamide] | < 0.1 | comparable activities for inhibiting microtubule polymerization |  | 
2 | CN[C@H](C(=O)N[C@H](C(=O)N(C)[C@H](/C=C(\C)C(=O)N[C@H](CCC(=O)O)C(=O)O)C(C)C)C(C)(C)C)C(C)(C)c1ccccc1 [Example 2, N,β,β-Trimethyl-L-phenylalanyl-N-[(3S,4E)-6-{[(1R)-1,3-dicarboxypropyl]amino}-2,5-dimethyl-6-oxohex-4-en-3-yl]-N,3-dimethyl-L-valinamide] | < 0.1 |  | 2 | 
3 | C/C(=C\[C@H](C(C)C)N(C)C(=O)[C@@H](NC(=O)[C@H]1CCCCN1C(C)C)C(C)(C)C)C(=O)N[C@H](CCC(=O)O)C(=O)O [Example 3, N-[(2E,4S)-2,5-Dimethyl-4-(methyl {3-methyl-N-[(2R)-1-(propan-2-yl)piperidine-2-carbonyl]-L-valyl}amino)hex-2-enoyl]-D-glutamic acid] | < 0.1 |  | 5 | 
4 | CN[C@H](C(=O)N[C@H](C(=O)N(C)[C@H](/C=C(\C)C(=O)N[C@H](CC(=O)O)C(=O)O)C(C)C)C(C)(C)C)C(C)(C)c1cn(C)c2ccccc12 [Example 5] | < 0.1 |  |  | 
5 | CN[C@H](C(=O)N[C@H](C(=O)N(C)[C@H](/C=C(\C)C(=O)N[C@@H](CCC(=O)O)C(=O)O)C(C)C)C(C)(C)C)C(C)(C)c1cn(C)c2ccccc12 [Example 6] | < 0.1 |  | 4 | 
6 | CN[C@H](C(=O)N[C@H](C(=O)N(C)[C@H](/C=C(\C)C(=O)N[C@H](CCCCN)C(=O)O)C(C)C)C(C)(C)C)C(C)(C)c1cn(C)c2ccccc12 [Example 7] | 0.8 |  |  | 
7 | CN[C@H](C(=O)N[C@H](C(=O)N(C)[C@H](/C=C(\C)C(=O)N[C@@H](CCC(=O)O)C(=O)O)C(C)C)C(C)(C)C)C(C)(C)c1ccccc1 [Example 9] | < 0.1 |  | 5 | 
8 | CN[C@H](C(=O)N[C@H](C(=O)N(C)[C@H](/C=C(\C)C(=O)N[C@H](CCC(=O)NCCN1C(=O)CC(SC[C@H](N)C(=O)O)C1=O)C(=O)O)C(C)C)C(C)(C)C)C(C)(C)c1ccccc1 (stereo partly drawn) [Example 37, (3S,6S,9S,10E,14R)-14-(3-{[2-(3-{[(2R)-2-Amino-2-carboxyethyl]sulfanyl}-2,5-dioxopyrrolidin-1-yl)ethyl]amino}-3-oxopropyl)-6-tert-butyl-8,11-dimethyl-4,7,12-trioxo-3-(2-phenylpropan-2-yl)-9-(propan-2-yl)-2,5,8,13-tetraazapentadec-10-en-15-oic acid] | 0.2 |  | 9 | 
9 | CN[C@H](C(=O)N[C@H](C(=O)N(C)[C@H](/C=C(\C)C(=O)NCCCC[C@@H](NC(=O)CCCN1C(=O)CC(SC[C@H](N)C(=O)O)C1=O)C(=O)O)C(C)C)C(C)(C)C)C(C)(C)c1cn(C)c2ccccc12 (stereo partly drawn) [Example 39] | 1.4 |  | 2 | 
10 | CN[C@H](C(=O)N[C@H](C(=O)N(C)[C@H](/C=C(\C)C(=O)N[C@H](CC(=O)NCCN1C(=O)CC(SC[C@H](N)C(=O)O)C1=O)C(=O)O)C(C)C)C(C)(C)C)C(C)(C)c1ccccc1 (stereo partly drawn) [Example 40] | 3 |  |  | 
11 | CN[C@H](C(=O)N[C@H](C(=O)N(C)[C@H](/C=C(\C)C(=O)N[C@@H](CC(=O)NCCN1C(=O)CC(SC[C@H](N)C(=O)O)C1=O)C(=O)O)C(C)C)C(C)(C)C)C(C)(C)c1ccccc1 (stereo partly drawn) [Example 41] | < 0.1 |  |  | 
12 | CN[C@H](C(=O)N[C@H](C(=O)N(C)[C@H](/C=C(\C)C(=O)N[C@@H](CCC(=O)NCCN1C(=O)CC(SC[C@H](N)C(=O)O)C1=O)C(=O)O)C(C)C)C(C)(C)C)C(C)(C)c1ccccc1 (stereo partly drawn) [Example 42] | 2.2 |  | 0 | 
13 | CN[C@H](C(=O)N[C@H](C(=O)N(C)[C@H](/C=C(\C)C(=O)N[C@H](CCC(=O)O)C(=O)NCCN1C(=O)CC(SC[C@H](N)C(=O)O)C1=O)C(C)C)C(C)(C)C)C(C)(C)c1ccccc1 (stereo partly drawn) [Example 46] | 3.5 |  | 0 | 
14 | CN[C@H](C(=O)N[C@H](C(=O)N(C)[C@H](/C=C(\C)C(=O)N[C@H](CCC(=O)NCCCCN1C(=O)CC(SC[C@H](N)C(=O)O)C1=O)C(=O)O)C(C)C)C(C)(C)C)C(C)(C)c1ccccc1 (stereo partly drawn) [Example 48] | 5.8 |  | 0 | 
15 | CN[C@H](C(=O)N[C@H](C(=O)N(C)[C@H](/C=C(\C)C(=O)N[C@@H](CCC(=O)NCCN1C(=O)CC(SC[C@H](N)C(=O)O)C1=O)C(=O)O)C(C)C)C(C)(C)C)C(C)(C)c1cn(C)c2ccccc12 (stereo partly drawn) [Example 49] | < 0.1 |  | 0 | 
16 | CN[C@H](C(=O)N[C@H](C(=O)N(C)[C@H](/C=C(\C)C(=O)N[C@H](CCC(=O)NCCCN1C(=O)CC(SC[C@H](N)C(=O)O)C1=O)C(=O)O)C(C)C)C(C)(C)C)C(C)(C)c1cn(C)c2ccccc12 (stereo partly drawn) [Example 54] | < 0.1 |  | 0 | 
17 | CN[C@H](C(=O)N[C@H](C(=O)N(C)[C@H](/C=C(\C)C(=O)N[C@@H](CCCCNC(=O)CCCN1C(=O)CC(SC[C@H](N)C(=O)O)C1=O)C(=O)O)C(C)C)C(C)(C)C)C(C)(C)c1cn(C)c2ccccc12 (stereo partly drawn) [Example 57] | < 0.1 |  |  | 
18 | CN[C@H](C(=O)N[C@H](C(=O)N(C)[C@H](/C=C(\C)C(=O)NCCCC[C@@H](NC(=O)CCCN1C(=O)CC(SC[C@H](N)C(=O)O)C1=O)C(=O)O)C(C)C)C(C)(C)C)C(C)(C)c1ccccc1 (stereo partly drawn) [Example 58] | 3 |  | 0 | 
19 | CN[C@H](C(=O)N[C@H](C(=O)N(C)[C@H](/C=C(\C)C(=O)O)C(C)C)C(C)(C)C)C(C)(C)c1cn(C)c2ccccc12 [Hemiasterlin, reference compound] | 25.6 | comparable activities for inhibiting microtubule polymerization | 0 | 
20 | CC[C@H](C)[C@@H]([C@@H](CC(=O)N1CCC[C@H]1[C@H](OC)[C@@H](C)C(=O)N[C@H](C)[C@@H](O)c1ccccc1)OC)N(C)C(=O)[C@@H](NC(=O)[C@@H](NC)C(C)C)C(C)C [MMAE, monomethyl auristatin, reference compound] (H-[NMeV]V[Dil][Dolaproine]-X1) |  | comparable activities for inhibiting microtubule polymerization |  | 15.3 10^−6 cm/sec
